Data set [1] can be described thus: Chemical stability of Amlexanox sodium salt solution (HPLC). The following applies: 20 mg Amlexanox sodium salt in 2 mL Tris buffer pH 7.2; 0.05 molar equivalent of the listed compound; 72 hours, ambient light, access to air; HPLC peak area. The data set is classed as physicochemical. As to the method: 20 mg of crystalline Amlexanox sodium salt was dissolved in a clear glass test tube in 2 mL of Tris buffer, pH 7.2. For each of the stabilizing compounds listed in the Table below, 0.05 molar equivalent of the compound was added to the solution, mixed until dissolved, and left under ambient light, and with access to the air. Concentration of Amlexanox in the sample was determined by HPLC right after preparation, and after 72 hours. The chemical stability of Amlexanox was evaluated by comparison of area under the peak of amlexanox from the two analyses.

Data set [2] is described as follows: Pharmacokinetics and bioavailability in normal mice. It counts as in vivo, mouse. The following applies: for AUC / Cmax / MRT / clearance / half-life / Vd / bioavailability: female; for Vd: read-out: Vss; for bioavailability: C57BL/6, plasma, po, mouse, sodium salt, read-out: Bioavailability for oral administration. As to the method:
Female C57BL/6 mice were used at 6 to 7 weeks of age. The animals were given food (Purina mouse chow, Pro Lab PMH 4018, Trademark of Agway, Syracuse, N.Y., USA) and water ad libitum. The mice were kept at five per cage under light (12 h light/dark cycle) and temperature (22±1° C.) controlled environment. The animal studies were conducted according to the “Guidelines for Care and Use of Experimental Animals”.
Amlexanox sodium salt dosing solutions for oral administration were prepared by dissolving amlexanox sodium salt, prepared according to Example 10, in distilled water. amlexanox sodium salt dosing solutions for i.v. administration were prepared by dissolving amlexanox sodium salt, prepared according to Example 10, in isotonic solution (0.9% NaCl). Amlexanox meglumine formulation dosing solutions for oral administration were prepared by dissolving amlexanox meglumine formulation F1, prepared according to Example 12, in distilled water. Amlexanox meglumine formulation dosing solutions for i.v. administration were prepared by dissolving amlexanox meglumine formulation F1, prepared according to Example 13, in isotonic solution (0.9% NaCl). 1 mg/mL solution of amlexanox was used for dosing 10 mg/kg, and 10 mg/mL solution was used for dosing 100 mg/kg.
Amlexanox-X dosing solutions were administered i.v. and orally in normal mice (four animals per each time point). After various time intervals (15, 30 min and 1, 3, 6 and 8 h for Amlexanox-X Na salt and 15, 30 min, 1, 2 and 6 h for Amlexanox-X+MG) post-injection, blood and major organs (liver, kidney, lung and brain) were collected. Then, blood was immediately centrifuged, and plasma was separated. The plasma and tissue samples were immediately frozen in dry ice and stored at −80° C. until further use.
The defrosted plasma samples were centrifuged at 2000 g for 5 min, and aliquots (10 μL) of each sample were transferred into 1.5-ml plastic tubes. The samples were diluted with PBS in various amounts of times and aliquots of 100 μL were transferred into the other 1.5-ml plastic tubes. The samples were extracted with 1 mL of 100% acetonitrile for 10 min on 180° rotator. Then, the tubes were centrifuged at 10,000 g for 15 min.
The supernatant was separated to glass tubes and evaporated in a stream of nitrogen at […]. until dryness. The dried samples were kept at −20° C. until HPLC analysis. The samples were reconstituted in 100 μL of mobile phase analyze before analyze by HPLC.
The samples were analysed by HPLC using 250×4.6 mm, Phenomenex C18 Luna, 5 micron column, 1 mL/min flow rate of mobile phase 73% of 25 mM sodium phosphate pH 7.5 and 27% acetonitrile; fluorescent deyection λexcitation=348 nm, λemission=404 nm.
The concentrations of amlexanox in samples were determined by comparison with calibration curve obtained from spiked mouse plasma samples using the same analytical method. The areas under the curves (AUC) of amlexanox were calculated by trapezoidal method. Main pharmacokinetic parameters of amlexanox and bioavailability if amlexanox Na salt and amlexanox with meglumine formulation are shown in Tables below.

A further data set has as its system CSML100 cells. Briefly: S100A4-positive lung metastasis tumor model, alone or in combinations (Example 25). It counts as in vivo, mouse. The conditions noted are these: CSML100 i.v. in A/J mice, 10 days, mean±SEM. The method, then: Amlexanox solution for injections was prepared according to the Example 4. […] The animals were then divided randomly into 9 groups (n=9 except for control group): 1) intact control (n=13, saline); 2) Amlexanox (i.v. 100 mg/kg); 3) Amlexanox ([…]. 3 mg/kg); 5) Amlexanox ([…]. […] 10 mg/kg). […] The treatments were started on the day following the tumor cell implantation and continued for 10 consecutive days. […] The animal body weight was recorded as an index of treatment toxicity during the experiment. […] The data are expressed as mean±SEM for the number of metastatic sites on the lung surface.

Setting [3] is: C57BL/6, iv, mouse plasma, i.v., 10 mg/kg.
Where [4] appears, read: C57BL/6, iv, mouse plasma, i.v., 100 mg/kg.
Setting [5] is: C57BL/6, mouse plasma, oral, 10 mg/kg.
Where [6] appears, read: C57BL/6, mouse plasma, oral, 100 mg/kg.

Molecules are shown by their SMILES. Structures can show the parent of a compound that is named as a salt. Where two headings read alike, the source gives them in different places.

The AUC is the area under the concentration-time curve, a measure of exposure. Lower therefore signals less exposure. Usually Cmax stands for the peak of the concentration-time curve. Usually MRT stands for the average time that molecules of a dose stay in the body. As a reminder, the clearance is a measure of how efficiently the substance is removed, as volume per time. What is called half-life is the time in which the quantity being followed falls by half. Read a high half-life as slow loss. As for `CC(C)c1ccc2oc3nc(N)c(C(=O)O)cc3c(=O)c2c1` [Amlexanox (salt), 2-amino-7-isopropyl-1-azaxanthone-3-carboxylic acid sodium salt], the “Retained Amlexnox” value in data set [1] came to 93.8%. In data set [2] (setting [3]), the AUC stood at 31.3 µg·h/mL, the concentration peaked (Cmax) at 55.7 µg/mL, the MRT was found to be 0.5 h and the clearance was 5 mL/min/kg. In data set [2] (setting [3]), the half-life was 0.4 h and the Vd is 0.2 L/kg. In data set [2] (setting [4]), this compound had an AUC of 734 µg·h/mL, a Cmax of 590 µg/mL, an MRT of 1.2 h and a clearance of 0.167 mL/min/kg. Also, in data set [2] (setting [4]), the half-life was 0.8 h and the Vd stood at 0.02 L/kg. In data set [2] (10 mg/kg), the bioavailability is 61.7%. Moreover, the bioavailability in data set [2] (100 mg/kg) turned out to be 41.1%. Besides, in data set [2] (setting [5]), the AUC amounted to 19.3 µg·h/mL, the concentration peaked (Cmax) at 17.6 µg/mL, the MRT is 1.6 h and the half-life was 1.1 h. For the same compound, in data set [2] (setting [6]), the AUC stood at 302 µg·h/mL, the peak level (Cmax) was 206 µg/mL, the MRT amounted to 2.2 h and the half-life is 1.5 h. In data set [2] (mouse plasma, oral, 10 mg/kg), this compound had a CL of 8.3 mL/min/kg and a Vss of 0.8 L/kg. The compound further had a Vss in data set [2] (mouse plasma, oral, 100 mg/kg) of 0.07 L/kg.

With `CC(C)c1ccc2oc3nc(N)c(C(=O)O)cc3c(=O)c2c1` [Amlexanox, 2-amino-7-isopropyl-1-azaxanthone-3-carboxylic acid], the “Lung Metastasis Number per Animal” value in the data set with CSML100 cells (Amlexanox i.v. 100 mg/kg daily) amounted to 29.6 ± 3.89; with CSML100 cells (Amlexanox p.o. 200 mg/kg daily), 26.2 ± 4.16.

The record behind these values is patent US7772255B2, “Method of treating tumors with azaxanthones” (Supratek Pharma, Inc., priority 2005, dated 2010).
